The source of these data is patent publication US20240307419A1, “CONFORMATIONALLY-CONSTRAINED INHIBITORS OF 3C OR 3C-LIKE PROTEASES” (priority 2021, published 2024).

SMILES strings stand for the structures. Like-named read-outs stand apart in the source and are kept apart here.

In one series the target is SARS-CoV-2 3CLpro (Severe acute respiratory syndrome coronavirus 2 (2019-nCoV) (SARS-CoV-2), UniProt P0DTD1). As to the kind of experiment: biochemical. The series is classed as biochemical.
The target in the next series is MERS-CoV 3CLpro (Middle East respiratory syndrome-related coronavirus (isolate United Kingdom/H123990006/2012) (MERS-CoV) (Betacoronavirus England 1), UniProt K9N7C7). The series is classed as biochemical.
Sequence of MERS-CoV 3CLpro (K9N7C7 3248-3553 limits assumed): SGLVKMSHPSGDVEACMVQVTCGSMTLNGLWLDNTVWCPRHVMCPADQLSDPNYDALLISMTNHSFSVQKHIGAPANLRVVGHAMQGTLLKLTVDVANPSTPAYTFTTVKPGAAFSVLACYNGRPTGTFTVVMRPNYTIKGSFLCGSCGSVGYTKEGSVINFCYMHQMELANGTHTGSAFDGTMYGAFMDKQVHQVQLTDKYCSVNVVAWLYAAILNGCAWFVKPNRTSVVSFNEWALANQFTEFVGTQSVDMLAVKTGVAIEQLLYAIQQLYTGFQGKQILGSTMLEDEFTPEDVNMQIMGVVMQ
In series [1] the test system is SARS-CoV-2.
For series [2], the system named is Huh-7, CRFK, or CCL1 cells.
For series [3], the system named is SARS-CoV-2. Put plainly: in vitro. As to conditions: African green monkey.
Series [4] relates to SARS-CoV-2. Put plainly: microbe, parasite or virus in culture. As to conditions: Severe acute respiratory syndrome coronavirus 2, Vero C1008, read-out: EC50 against SARS-CoV-2 in Vero E6 cells.
Series [5] deals with SARS-CoV-2 replicon. Put plainly: microbe, parasite or virus in culture. As to conditions: read-out: EC50, SARS-CoV-2 replicon assay. The series is classed as cell-based. (In general: Replicon systems follow genome replication, usually without infectious particles.)
For the next series, the system named is CRFK cells. As to conditions: cat.
Series [6] has as its system SARS-CoV-2 replicon. As to conditions: 293T cells, previously reported; read-out: EC50 previously reported with the same system; cited from earlier work.
Series [7] has as its system feline infectious peritonitis virus (FIPV). As to conditions: cell culture and naturally infected animals with long term treatment; previously reported; cited from earlier work.
The mark [8] stands for this setting: Severe acute respiratory syndrome coronavirus 2, HEK-293T, 30 h.

As usually defined, the IC50 is the concentration needed to halve the response being measured. A word on the EC50: it is the concentration giving half of the maximal effect. Broadly, the CC50 is the concentration that lowers cell viability or growth by half. For `CC(C)C[C@H](NC(=O)OC[C@@H]1C[C@@H]2CCC[C@@H](C2)C1)C(=O)N[C@H](C=O)C[C@@H]1CCNC1=O` [Compound 2a, ((1R,3s,5S)-Bicyclo[3.3.1]nonan-3-yl)methyl ((S)-4-methyl-1-oxo-1-(((S)-1-oxo-3-((S)-2-oxopyrrolidin-3-yl)propan-2-yl)amino)pentan-2-yl)carbamate], the IC50 on SARS-CoV-2 3CLpro (read-out: IC50) worked out at 180 ± 30 nM. At MERS-CoV 3CLpro, the IC50 is 52 ± 1 nM. Moreover, in the series with SARS-CoV-2 [1], the “EC50 lower than the corresponding IC50 values” was approximately 4.6 fold and the selectivity indices is 2857. Also, the EC50 with SARS-CoV-2 [1] (read-out: EC50 against SARS-CoV-2 in Vero E6 cells) came to 35 nM. In series [2], the CC50 is more than 100000 nM.
With `CC(C)C[C@H](NC(=O)OCC1C[C@H]2CCC[C@@H](C1)C2)C(=O)N[C@@H](C[C@@H]1CCNC1=O)C(O)S(=O)(=O)[O-].[Na+]` (stereo partly drawn) [Compound 3a, Sodium (2S)-2-((2S)-2-(((((1R,5S)-bicyclo[3.3.1]nonan-3-yl)methoxy)carbonyl)amino)-4-methylpentanamido)-1-hydroxy-3-((S)-2-oxopyrrolidin-3-yl)propane-1-sulfonate], the IC50 on SARS-CoV-2 3CLpro (read-out: IC50) is 170 ± 20 nM; against MERS-CoV 3CLpro, 49 ± 2 nM. Also, in the series with SARS-CoV-2 [1], the “EC50 lower than the corresponding IC50 values” is recorded as approximately 4.6 fold. Moreover, in series [2], the CC50 is more than 100000 nM. The selectivity ratio in the series on SARS-CoV-2 [3] amounted to 3120. In addition, the EC50 with SARS-CoV-2 [4] was 32 nM.
Turning to `CC(C)C[C@H](NC(=O)OC1CC2(CCN(C(=O)OC(C)(C)C)CC2)C1)C(=O)N[C@H](C=O)C[C@H]1CCNC1=O` [Compound 7b, Tert-butyl 2-((((S)-4-methyl-1-oxo-1-(((S)-1-oxo-3-((R)-2-oxopyrrolidin-3-yl)propan-2-yl)amino)pentan-2-yl)carbamoyl)oxy)-7-azaspiro[3.5]nonane-7-carboxylate], the “IC50 lower than that of compound 1b” value against SARS-CoV-2 3CLpro is recorded as more than 9 fold. The EC50 with SARS-CoV-2 replicon [5] (setting [8]) turned out to be 90 nM. In the series with CRFK cells, this compound yielded a CC50 of more than 100000 nM.
For `CC(C)C[C@H](NC(=O)OC1CC2(CCN(C(=O)OC(C)(C)C)CC2)C1)C(=O)N[C@@H](C[C@H]1CCNC1=O)C(O)S(=O)(=O)O` (stereo partly drawn) [Compound 7c, Sodium (2S)-2-((S)-2-((((7-(tert-butoxycarbonyl)-7-azaspiro[3.5]nonan-2-yl)oxy)carbonyl)amino)-4-methylpentanamido)-1-hydroxy-3-((R)-2-oxopyrrolidin-3-yl)propane-1-sulfonate], the EC50 with SARS-CoV-2 replicon [5] (setting [8]) was determined as 80 nM. In addition, the CC50 in the series with CRFK cells was more than 100000 nM.
For the compound `CC(C)C[C@H](NC(=O)OCC1CN(C(=O)OC(C)(C)C)C1)C(=O)N[C@H](C=O)C[C@H]1CCNC1=O` [Compound 14b, Tert-butyl 3-(((((S)-4-methyl-1-oxo-1-(((S)-1-oxo-3-((R)-2-oxopyrrolidin-3-yl)propan-2-yl)amino)pentan-2-yl)carbamoyl)oxy)methyl)azetidine-1-carboxylate], the EC50 with SARS-CoV-2 replicon [5] (setting [8]) was 380 nM. In addition, in the series on CRFK cells, the CC50 is more than 100000 nM.
`CC(C)C[C@H](NC(=O)OCC1CN(C(=O)OC(C)(C)C)C1)C(=O)N[C@@H](C[C@H]1CCNC1=O)C(O)S(=O)(=O)O` (stereo partly drawn) [Compound 14c, Sodium (2S)-2-((S)-2-((((1-(tert-butoxycarbonyl)azetidin-3-yl)methoxy)carbonyl)amino)-4-methylpentanamido)-1-hydroxy-3-((R)-2-oxopyrrolidin-3-yl)propane-1-sulfonate]: the IC50 against SARS-CoV-2 3CLpro is 50 nM. Moreover, in the series with SARS-CoV-2 replicon [5] (setting [8]), the EC50 came to 430 nM. This compound came in with a CC50 in the series with CRFK cells of more than 100000 nM.
As to `CC(C)C[C@H](NC(=O)OCc1ccccc1)C(=O)N[C@@H](CC1CCNC1=O)C(O)S(=O)(=O)O` (stereo partly shown) [GC376], the EC50 is 37 ± 10 nM with SARS-CoV-2 replicon [5] and 20 nM in the series on SARS-CoV-2 replicon [6].
For the compound `CC(C)C[C@H](NC(=O)OCc1ccccc1)C(=O)N[C@@H](C[C@@H]1CCNC1=O)C(O)S(=O)(=O)[O-].[Na+]` (stereo partly shown) [GC376], the “barrier to resistance to FIPV” value in [7] is recorded as “high barrier to resistance”.
